Measured values from paper PMC11481279 (Europace, 2024).

What follows are molecules tested against SARS-CoV-2 ORF 3a protein (Severe acute respiratory syndrome coronavirus 2, UniProt P0DTC3) (assay: cell-based). Conditions: read-out: % inhibition at 100 μM.

Question: Which inhibition at 100 µM does the source give for CC(C)NC[C@@H](O)c1ccc(NS(C)(=O)=O)cc1 [D-Sotalol] here?
Answer: 20.6 ± 4.5%

Question: Which inhibition at 100 µM does the source give for CN(CCOc1ccc(NS(C)(=O)=O)cc1)CCc1ccc(NS(C)(=O)=O)cc1 [Dofetilide] here?
Answer: 65.1 ± 6.7%

Question: How did the inhibition at 100 µM turn out when CCCCc1oc2ccc(NS(C)(=O)=O)cc2c1C(=O)c1ccc(OCCCN(CCCC)CCCC)cc1 [Dronedarone] was run?
Answer: 45.4 ± 4.7%

Question: How did the inhibition at 100 µM turn out when CCCCCCCN(CC)CCCC(O)c1ccc(NS(C)(=O)=O)cc1 (stereo not shown) [Ibutilide] was run?
Answer: 36.4 ± 6.6%
